# Source: paper PMC9674830, “A glutamine-based single α-helix scaffold to target globular proteins” (Nature Communications, 2022)
# Assay: NMR residue-specific helical propensity (pHel, CheSPI from backbone chemical shifts)
# Format: physicochemical
# Details: 278 K, pH 7.4, 100 μM; 9 contiguous residues for (P3-7)2, 16 for (P3-7)3
# Description: Peptide samples for NMR spectroscopy were diluted to a final concentration of 100 μM in a volume of 400 μL in either 20 mM phosphoric acid (pH 2.8) or sodium phosphate (pH 7.4) buffer with added 10% v/v D2O and 10 μM DSS for internal chemical shift referencing, then filled into Shigemi tubes (Shigemi Co. Ltd, Tokyo, Japan). All NMR experiments were recorded at 278 K (unless stated otherwise) on either a Bruker Avance III 600 MHz or a Bruker Avance NEO 800 MHz spectrometer, both equipped with TCI cryoprobes, using TopSpin 4.0.8 for data acquisition (Bruker, Billerica, MA). Unlabeled synthetic peptides P1-5, P2-6, P3-7, P5-9 were characterized by two-dimensional homonuclear (TOCSY and NOESY) and heteronuclear (^1H-^13C HSQC) experiments. The TOCSY and NOESY mixing times were set to 70 and 200 ms, respectively. Water suppression was achieved by excitation sculpting[59] using a 2 ms long Squa100.1000 selective pulse. For peptide backbone resonance assignment, using uniformly ^15N,^13C labeled peptides, the following series of 3D triple resonance BEST-TROSY[60] experiments were acquired with 25% non-uniform sampling (NUS): HNCO, HN(CA)CO, HN(CO)CA, HNCA, and HN(CO)CACB. For some peptides, we resolved assignment ambiguities by also acquiring a 3D (H)N(CA)NH spectrum. Furthermore, 2D ^13C-detected CACO and CON experiments[61] were measured. […]
sequence,measurement,value
"KKPGASLAALQALQALQAAQAAKKY [(P3-7)2, Gln-based single α-helix scaffold peptide]",Residue-specific helical propensity (pHel) over contiguous residues,> 0.9
